Common to all, as to test: biochemical
Parameters in all cases: DiscoverX KINOMEscan scanMAX competition binding panel, single concentration, percent of control; remaining binding: dose or concentration left out as unconfirmed
Details in all cases: KINOMEscan binding, percent of control; read-out: Table S4_SCANMAX REPORT - related to Fig. 1 / Percent Control

In assay [1] the target is T1, RIPK5 (Homo sapiens, UniProt Q6XUX3).
T1 construct: gene DSTYK

The target in assay [2] is NEK11 (Homo sapiens, UniProt Q8NG66).
NEK11, sequence (Q8NG66 whole entry): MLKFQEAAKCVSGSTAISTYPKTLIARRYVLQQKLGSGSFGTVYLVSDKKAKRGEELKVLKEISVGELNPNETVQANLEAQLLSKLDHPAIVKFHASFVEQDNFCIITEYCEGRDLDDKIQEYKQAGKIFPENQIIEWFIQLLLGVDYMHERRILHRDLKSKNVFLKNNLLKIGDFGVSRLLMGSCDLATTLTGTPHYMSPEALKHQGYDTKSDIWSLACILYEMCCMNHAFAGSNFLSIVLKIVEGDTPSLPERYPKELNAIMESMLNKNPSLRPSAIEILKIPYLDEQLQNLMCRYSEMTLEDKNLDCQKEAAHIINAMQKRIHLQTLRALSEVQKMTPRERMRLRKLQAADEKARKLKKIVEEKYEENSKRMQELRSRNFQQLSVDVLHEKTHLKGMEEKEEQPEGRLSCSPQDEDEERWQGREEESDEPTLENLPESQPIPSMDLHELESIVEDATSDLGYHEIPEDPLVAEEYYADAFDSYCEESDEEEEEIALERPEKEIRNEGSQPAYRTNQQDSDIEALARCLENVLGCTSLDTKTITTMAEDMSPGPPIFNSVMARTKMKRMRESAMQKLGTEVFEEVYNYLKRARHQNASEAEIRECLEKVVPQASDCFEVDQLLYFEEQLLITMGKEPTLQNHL
Assay [3] concerns the target TNK2 (Homo sapiens, UniProt Q07912).
In assay [4] the target is T2, ABL1(H396P)-phosphorylated (Homo sapiens, UniProt P00519, H396P).
T2 construct: phosphorylated

Assay [5] has as its target EPHB6 (Homo sapiens, UniProt O15197).
Assay [6] has as its target TGFBR1 (Homo sapiens, UniProt P36897).
In assay [7] the target is KIT(L576P) (Homo sapiens, UniProt P10721, L576P).
Assay [8] has as its target T3, MRCKB (Homo sapiens, UniProt Q9Y5S2).
T3 construct: gene CDC42BPB

Assay [9] concerns the target CLK1 (Homo sapiens, UniProt P49759).
Assay [10] addresses T4, RSK2(Kin.Dom.1-N-terminal) (Homo sapiens, UniProt P51812).
T4 construct: gene RPS6KA3; Kin.Dom.1-N-terminal

Assay [11] deals with FLT3-autoinhibited (Homo sapiens, UniProt P36888).
FLT3-autoinhibited, sequence (P36888 whole entry): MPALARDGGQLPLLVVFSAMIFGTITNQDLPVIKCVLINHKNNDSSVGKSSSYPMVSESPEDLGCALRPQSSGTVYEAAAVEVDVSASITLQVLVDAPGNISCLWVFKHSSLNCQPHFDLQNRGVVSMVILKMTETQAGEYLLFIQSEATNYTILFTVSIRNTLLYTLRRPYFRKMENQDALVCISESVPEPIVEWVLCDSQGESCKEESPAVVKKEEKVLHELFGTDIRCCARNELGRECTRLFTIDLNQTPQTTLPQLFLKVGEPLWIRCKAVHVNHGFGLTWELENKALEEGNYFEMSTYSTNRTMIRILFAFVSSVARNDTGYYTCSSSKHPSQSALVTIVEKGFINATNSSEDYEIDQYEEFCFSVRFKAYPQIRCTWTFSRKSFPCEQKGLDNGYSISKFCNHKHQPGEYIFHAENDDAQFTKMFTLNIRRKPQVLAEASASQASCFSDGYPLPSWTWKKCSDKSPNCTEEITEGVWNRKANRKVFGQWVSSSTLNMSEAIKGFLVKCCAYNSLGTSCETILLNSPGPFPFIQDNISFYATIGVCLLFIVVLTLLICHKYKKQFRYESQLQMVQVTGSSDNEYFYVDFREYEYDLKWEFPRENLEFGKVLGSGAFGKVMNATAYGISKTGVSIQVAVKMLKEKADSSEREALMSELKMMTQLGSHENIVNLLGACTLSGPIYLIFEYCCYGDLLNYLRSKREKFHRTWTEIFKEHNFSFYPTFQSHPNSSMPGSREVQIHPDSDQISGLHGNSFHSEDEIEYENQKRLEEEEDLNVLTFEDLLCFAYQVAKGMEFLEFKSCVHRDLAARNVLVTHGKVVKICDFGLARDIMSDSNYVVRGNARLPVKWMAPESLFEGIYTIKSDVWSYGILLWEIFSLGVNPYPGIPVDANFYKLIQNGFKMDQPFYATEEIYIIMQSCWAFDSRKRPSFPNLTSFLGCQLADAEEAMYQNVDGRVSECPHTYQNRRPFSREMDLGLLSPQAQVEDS
Assay [12] deals with CDKL3 (Homo sapiens, UniProt Q8IVW4).
CDKL3, sequence (Q8IVW4 whole entry): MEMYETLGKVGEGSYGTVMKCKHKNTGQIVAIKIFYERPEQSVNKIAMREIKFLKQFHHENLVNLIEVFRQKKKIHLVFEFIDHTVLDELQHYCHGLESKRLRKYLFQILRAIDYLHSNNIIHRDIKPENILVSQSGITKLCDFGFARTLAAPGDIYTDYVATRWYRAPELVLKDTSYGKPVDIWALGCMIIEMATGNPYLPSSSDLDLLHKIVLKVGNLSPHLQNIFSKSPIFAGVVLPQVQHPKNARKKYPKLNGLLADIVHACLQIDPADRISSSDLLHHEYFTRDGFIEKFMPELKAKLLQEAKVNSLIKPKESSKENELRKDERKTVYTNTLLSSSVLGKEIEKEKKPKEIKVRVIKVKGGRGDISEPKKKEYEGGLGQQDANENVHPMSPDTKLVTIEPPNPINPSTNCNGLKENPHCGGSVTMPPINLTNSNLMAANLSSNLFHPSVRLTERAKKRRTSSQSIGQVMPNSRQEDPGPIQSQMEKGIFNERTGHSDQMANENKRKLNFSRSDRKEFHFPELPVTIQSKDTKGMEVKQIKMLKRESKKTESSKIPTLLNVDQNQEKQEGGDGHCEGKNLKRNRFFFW
The target in assay [13] is CSF1R-autoinhibited (Homo sapiens, UniProt P07333).
CSF1R-autoinhibited, sequence (P07333 whole entry): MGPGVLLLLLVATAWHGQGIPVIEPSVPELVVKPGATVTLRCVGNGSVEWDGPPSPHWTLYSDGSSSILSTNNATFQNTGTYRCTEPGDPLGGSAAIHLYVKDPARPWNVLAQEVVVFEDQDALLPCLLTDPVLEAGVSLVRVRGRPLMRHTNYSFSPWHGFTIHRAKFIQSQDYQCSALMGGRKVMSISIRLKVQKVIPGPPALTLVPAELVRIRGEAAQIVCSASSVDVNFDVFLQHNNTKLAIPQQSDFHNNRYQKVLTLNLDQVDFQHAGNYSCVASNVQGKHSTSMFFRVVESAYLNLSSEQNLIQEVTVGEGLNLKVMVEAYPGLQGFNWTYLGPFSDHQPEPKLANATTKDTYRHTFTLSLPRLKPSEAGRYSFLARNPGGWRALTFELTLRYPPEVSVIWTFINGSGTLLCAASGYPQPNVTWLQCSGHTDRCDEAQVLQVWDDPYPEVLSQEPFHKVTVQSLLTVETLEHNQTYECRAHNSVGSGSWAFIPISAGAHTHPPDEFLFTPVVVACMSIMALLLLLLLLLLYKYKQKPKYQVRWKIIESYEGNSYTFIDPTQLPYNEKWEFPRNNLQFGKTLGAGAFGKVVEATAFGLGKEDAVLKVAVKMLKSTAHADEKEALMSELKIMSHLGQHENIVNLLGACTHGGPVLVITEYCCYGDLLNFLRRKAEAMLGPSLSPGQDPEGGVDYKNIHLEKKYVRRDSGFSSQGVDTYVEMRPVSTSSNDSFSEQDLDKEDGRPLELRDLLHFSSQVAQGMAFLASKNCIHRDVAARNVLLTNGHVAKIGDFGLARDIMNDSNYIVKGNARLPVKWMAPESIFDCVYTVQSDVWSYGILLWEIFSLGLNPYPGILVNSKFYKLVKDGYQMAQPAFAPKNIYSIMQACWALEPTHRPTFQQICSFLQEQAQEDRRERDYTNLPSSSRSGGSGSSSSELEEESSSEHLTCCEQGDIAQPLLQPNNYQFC
In assay [14] the target is T5, OSR1 (Homo sapiens, UniProt O95747).
T5 construct: gene OXSR1
T5 sequence (O95747 whole entry): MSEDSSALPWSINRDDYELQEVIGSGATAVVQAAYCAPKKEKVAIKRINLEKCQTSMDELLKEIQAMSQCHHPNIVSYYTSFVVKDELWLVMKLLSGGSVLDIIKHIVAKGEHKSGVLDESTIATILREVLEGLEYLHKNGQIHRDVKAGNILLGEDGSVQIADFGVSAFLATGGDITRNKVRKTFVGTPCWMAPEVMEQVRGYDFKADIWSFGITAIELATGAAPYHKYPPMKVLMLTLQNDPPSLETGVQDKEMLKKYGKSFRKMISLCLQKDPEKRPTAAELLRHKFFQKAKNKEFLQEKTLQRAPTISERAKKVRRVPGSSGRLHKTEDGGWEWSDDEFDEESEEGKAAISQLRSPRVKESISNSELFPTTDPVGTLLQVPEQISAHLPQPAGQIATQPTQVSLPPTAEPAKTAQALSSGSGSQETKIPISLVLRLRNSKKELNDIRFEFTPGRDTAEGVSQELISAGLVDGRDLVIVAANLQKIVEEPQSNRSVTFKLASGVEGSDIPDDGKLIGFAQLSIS

Assay [15] addresses T6, MEK1 (Homo sapiens, UniProt Q02750).
T6 construct: gene MAP2K1

The target of assay [16] is TRPM6 (Homo sapiens, UniProt Q9BX84).
Assay [17] addresses ROS1 (Homo sapiens, UniProt P08922).
Assay [18] addresses NEK1 (Homo sapiens, UniProt Q96PY6).

Structures are written as SMILES.

T1 sequence (Q6XUX3 whole entry): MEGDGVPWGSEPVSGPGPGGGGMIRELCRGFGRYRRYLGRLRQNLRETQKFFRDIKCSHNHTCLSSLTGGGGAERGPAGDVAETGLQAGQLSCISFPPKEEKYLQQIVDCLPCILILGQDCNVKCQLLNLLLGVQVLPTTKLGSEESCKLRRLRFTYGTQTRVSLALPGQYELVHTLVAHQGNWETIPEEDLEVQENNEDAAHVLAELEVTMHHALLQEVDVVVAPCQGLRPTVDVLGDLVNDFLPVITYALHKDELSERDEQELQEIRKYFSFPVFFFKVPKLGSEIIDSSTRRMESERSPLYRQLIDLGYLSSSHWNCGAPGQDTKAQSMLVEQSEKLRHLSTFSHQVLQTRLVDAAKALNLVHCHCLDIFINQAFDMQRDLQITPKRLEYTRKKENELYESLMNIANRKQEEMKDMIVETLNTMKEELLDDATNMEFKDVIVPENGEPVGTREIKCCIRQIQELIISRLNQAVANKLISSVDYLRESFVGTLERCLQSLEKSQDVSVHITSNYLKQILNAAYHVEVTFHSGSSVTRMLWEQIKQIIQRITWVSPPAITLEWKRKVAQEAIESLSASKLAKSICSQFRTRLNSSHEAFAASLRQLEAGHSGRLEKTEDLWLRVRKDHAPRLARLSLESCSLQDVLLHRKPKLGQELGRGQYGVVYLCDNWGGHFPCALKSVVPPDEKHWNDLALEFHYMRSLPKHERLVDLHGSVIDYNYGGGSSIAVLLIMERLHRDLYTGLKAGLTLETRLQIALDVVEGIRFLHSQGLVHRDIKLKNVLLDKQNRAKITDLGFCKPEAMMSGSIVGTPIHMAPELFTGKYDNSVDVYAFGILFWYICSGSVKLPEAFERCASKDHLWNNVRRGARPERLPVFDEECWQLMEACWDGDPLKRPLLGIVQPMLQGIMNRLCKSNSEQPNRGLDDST
T6 sequence (Q02750 whole entry): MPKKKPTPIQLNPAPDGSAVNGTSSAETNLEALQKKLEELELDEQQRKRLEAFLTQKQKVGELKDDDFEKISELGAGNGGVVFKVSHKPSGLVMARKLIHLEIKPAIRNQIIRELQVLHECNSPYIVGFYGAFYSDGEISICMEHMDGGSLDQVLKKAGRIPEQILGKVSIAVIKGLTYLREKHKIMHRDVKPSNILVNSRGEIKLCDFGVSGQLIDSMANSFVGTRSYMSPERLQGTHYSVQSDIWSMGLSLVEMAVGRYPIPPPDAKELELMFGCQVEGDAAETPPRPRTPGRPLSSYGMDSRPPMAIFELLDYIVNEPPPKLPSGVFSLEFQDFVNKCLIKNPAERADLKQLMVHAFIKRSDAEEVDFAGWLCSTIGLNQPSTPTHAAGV

As to `c1ccc2c(c1)Sc1ccccc1N2CCN1CCOCC1` [J54], the remaining binding in assay [1] worked out at 100%; in assay [2], 100%; in assay [3] it was 100%; in [4] it was 100%; in assay [5] it was 74%; in [6], 100%. Besides, the remaining binding in [7] came to 100%; in [8], 95%; in assay [9], 85%; in assay [10], 97%; in assay [11], 100%; in [12] it was 100%. In addition, the remaining binding in [13] worked out at 85%; in assay [14], 100%; in [15], 100%; in assay [16], 100%; in assay [17], 100%; in assay [18], 95%.

These data come from paper PMC7486443, “Generation of Phenothiazine with Potent Anti-TLK1 Activity for Prostate Cancer Therapy” (iScience, 2020).
